According to patent publication US12036312B2, “Non-aqueous topical compositions comprising a halogenated salicylanilide” (priority 2016, dated 2024):
In brackets after ≈: the same amount, converted by molar mass.

Tested on: S. aureus
Assay: MIC assay according to CLSI criteria, Example 2, S. aureus strains
Format: cell-based, Staphylococcus aureus
Conditions: Staphylococcus aureus
Source text: Chosen for its relevance regarding bacterial skin infections, the methicillin-resistant S. aureus (MRSA) 01 strain was used as the primary test microorganism. This strain is a community-acquired MRSA clinical isolate of USA 300 type, from a skin abscess.
Two-hundred-four other MRSA and methicillin-sensitive S. aureus strains, and 4 Streptococcus pyogenes strains, were also included in the study. These covered fusidic acid- and mupirocin-resistant strains, these two types of resistance being of clinical relevance.
Strains were conserved in Luria Bertani (LB) Broth (S. aureus) or Brain Heart Infusion (BHI) (S. pyogenes) supplemented with glycerol 15% (v/v) at −80° C., and reactivated by isolation on LB (S. aureus) or BHI (S. pyogenes) agar plates. Strains were cultivated in Mueller Hinton (MH) Broth-cation adjusted (S. aureus) or BHI (S. pyogenes). All strains were cultivated aerobically (microaerobically for S. pyogenes strains) at 37° C.
Bacterial cultures were stopped in their exponential growth phase and plates were inoculated with the approximate concentration of 5×10^5 cells per well. Plates were incubated at 37° C. for 18 hours (S. aureus) or 24 hours (S. pyogenes). Optical density at a wavelength of 600 nm was measured at the end of the incubation time.

Work on `C=C[C@]1(C)C[C@@H](OC(=O)CS[C@@H]2C[C@H]3CC[C@@H](C2)N3C)[C@]2(C)[C@H](C)CC[C@]3(CCC(=O)[C@H]32)[C@@H](C)[C@@H]1O` [Retapamulin, retapamulin] yielded an MIC (ATCC29213, strain ATCC 29213) of 0.03 µg/mL (≈ 0.0579 µM), an MIC (MRSA, strain MRSA 01) of 0.06 µg/mL (≈ 0.116 µM) and an MIC (MRSA, strain MRSA 02) of 0.06 µg/mL (≈ 0.116 µM). The MIC (MRSA, strain MRSA 03) was 0.03 µg/mL (≈ 0.0579 µM), the MIC (MRSA, strain MRSA 04) was 0.06 µg/mL (≈ 0.116 µM) and the MIC (MRSA, strain MRSA 05) was 0.03 µg/mL (≈ 0.0579 µM). The MIC (MRSA, strain MRSA 06) was 0.03 µg/mL (≈ 0.0579 µM), the MIC (MRSA, strain MRSA 07) was 0.06 µg/mL (≈ 0.116 µM) and the MIC (MRSA, strain MRSA 08) was 0.03 µg/mL (≈ 0.0579 µM). It also gave an MIC (MRSA, strain MRSA 09) of 0.06 µg/mL (≈ 0.116 µM), an MIC (MRSA, strain MRSA 10) of 0.06 µg/mL (≈ 0.116 µM) and an MIC (MRSA, strain MRSA 11) of 0.06 µg/mL (≈ 0.116 µM). It also gave an MIC (MRSA, strain MRSA 12) of 0.03 µg/mL (≈ 0.0579 µM), an MIC (MRSA, strain MRSA 13) of 0.06 µg/mL (≈ 0.116 µM) and an MIC (MRSA, strain MRSA 14) of 0.03 µg/mL (≈ 0.0579 µM). The MIC (MRSA, strain MRSA 15) was 0.06 µg/mL (≈ 0.116 µM), the MIC (MRSA, strain MRSA 16) was 0.06 µg/mL (≈ 0.116 µM) and the MIC (MRSA, strain MRSA 17) was 0.03 µg/mL (≈ 0.0579 µM). The MIC (MRSA, strain MRSA 18) was 0.06 µg/mL (≈ 0.116 µM), the MIC (MRSA, strain MRSA 19) was 0.03 µg/mL (≈ 0.0579 µM) and the MIC (MRSA, strain MRSA 20) was 0.06 µg/mL (≈ 0.116 µM). The MIC (MRSA, strain MRSA 21) was 0.125 µg/mL (≈ 0.241 µM), the MIC (MRSA, strain MRSA 22) was 0.06 µg/mL (≈ 0.116 µM) and the MIC (MRSA, strain MRSA 23) was 0.06 µg/mL (≈ 0.116 µM). It also gave an MIC (MRSA, strain MRSA 24) of 0.06 µg/mL (≈ 0.116 µM), an MIC (MRSA, strain MRSA 25) of 0.06 µg/mL (≈ 0.116 µM) and an MIC (MRSA, strain MRSA 26) of 0.06 µg/mL (≈ 0.116 µM). It also gave an MIC (MRSA, strain MRSA 27) of 0.06 µg/mL (≈ 0.116 µM), an MIC (MRSA, strain MRSA 27b) of 0.02 µg/mL (≈ 0.0386 µM) and an MIC (MRSA, strain MRSA 28) of 0.03 µg/mL (≈ 0.0579 µM). The MIC (MRSA, strain MRSA 29) was 0.06 µg/mL (≈ 0.116 µM), the MIC (MRSA, strain MRSA 30) was 0.03 µg/mL (≈ 0.0579 µM) and the MIC (MRSA, strain MRSA 31) was 16 µg/mL (≈ 30.9 µM). For the same compound, the MIC (MRSA, strain MRSA 32) was 0.06 µg/mL (≈ 0.116 µM), the MIC (MRSA, strain MRSA 33) was 0.06 µg/mL (≈ 0.116 µM) and the MIC (MRSA, strain MRSA 34) was 0.06 µg/mL (≈ 0.116 µM). For the same compound, the MIC (MRSA, strain MRSA 35) was 0.03 µg/mL (≈ 0.0579 µM), the MIC (MRSA, strain MRSA 36) was 0.06 µg/mL (≈ 0.116 µM) and the MIC (MRSA, strain MRSA 37) was 0.06 µg/mL (≈ 0.116 µM). For the same compound, the MIC (MRSA, strain MRSA 38) was 0.06 µg/mL (≈ 0.116 µM), the MIC (MRSA, strain MRSA 39) was 0.06 µg/mL (≈ 0.116 µM) and the MIC (MRSA, strain MRSA 40) was 0.03 µg/mL (≈ 0.0579 µM). It also gave an MIC (MRSA, strain MRSA 41) of 0.02 µg/mL (≈ 0.0386 µM), an MIC (MRSA, strain MRSA 42) of 0.06 µg/mL (≈ 0.116 µM) and an MIC (MRSA, strain MRSA 43) of 0.06 µg/mL (≈ 0.116 µM). The MIC (MRSA, strain MRSA 44) was 0.02 µg/mL (≈ 0.0386 µM), the MIC (MRSA, strain MRSA 45) was 0.02 µg/mL (≈ 0.0386 µM) and the MIC (MRSA, strain MRSA 46) was 0.02 µg/mL (≈ 0.0386 µM). It also gave an MIC (MRSA, strain MRSA 47) of 0.02 µg/mL (≈ 0.0386 µM), an MIC (MRSA, strain MRSA 48) of 0.02 µg/mL (≈ 0.0386 µM) and an MIC (MRSA, strain MRSA 49) of 0.02 µg/mL (≈ 0.0386 µM). For the same compound, the MIC (MRSA, strain MRSA 50) was 0.02 µg/mL (≈ 0.0386 µM), the MIC (MRSA, strain MRSA 51) was 0.03 µg/mL (≈ 0.0579 µM) and the MIC (MRSA, strain MRSA 52) was 0.02 µg/mL (≈ 0.0386 µM). The MIC (MRSA, strain MRSA 53) was 0.03 µg/mL (≈ 0.0579 µM), the MIC (MRSA, strain MRSA 54) was 0.03 µg/mL (≈ 0.0579 µM) and the MIC (MRSA, strain MRSA 55) was 0.02 µg/mL (≈ 0.0386 µM). It also gave an MIC (MRSA, strain MRSA 56) of under 0.01 µg/mL, an MIC (MRSA, strain MRSA 57) of 0.02 µg/mL (≈ 0.0386 µM) and an MIC (MRSA, strain MRSA 58) of 0.02 µg/mL (≈ 0.0386 µM). For the same compound, the MIC (MRSA, strain MRSA 59) was 0.02 µg/mL (≈ 0.0386 µM), the MIC (MRSA, strain MRSA 60) was 0.02 µg/mL (≈ 0.0386 µM) and the MIC (MRSA, strain MRSA 61) was 0.02 µg/mL (≈ 0.0386 µM). The MIC (MRSA, strain MRSA 62) was 0.02 µg/mL (≈ 0.0386 µM), the MIC (MRSA, strain MRSA 63) was 0.02 µg/mL (≈ 0.0386 µM) and the MIC (MRSA, strain MRSA 64) was 0.02 µg/mL (≈ 0.0386 µM). It also gave an MIC (MRSA, strain MRSA 65) of 0.02 µg/mL (≈ 0.0386 µM), an MIC (MRSA, strain MRSA 66) of 0.02 µg/mL (≈ 0.0386 µM) and an MIC (MRSA, strain MRSA 67) of 0.02 µg/mL (≈ 0.0386 µM). For the same compound, the MIC (MRSA, strain MRSA 68) was 0.02 µg/mL (≈ 0.0386 µM), the MIC (MRSA, strain MRSA 69) was under 0.01 µg/mL and the MIC (MRSA, strain MRSA 70) was 0.02 µg/mL (≈ 0.0386 µM). It also gave an MIC (MRSA, strain MRSA 71) of under 0.01 µg/mL, an MIC (MRSA, strain MRSA 72) of 0.03 µg/mL (≈ 0.0579 µM) and an MIC (MRSA, strain MRSA 73) of 0.03 µg/mL (≈ 0.0579 µM). For the same compound, the MIC (MRSA, strain MRSA 74) was 0.03 µg/mL (≈ 0.0579 µM), the MIC (MRSA, strain MRSA 75) was 0.03 µg/mL (≈ 0.0579 µM) and the MIC (MRSA, strain MRSA 76) was 0.03 µg/mL (≈ 0.0579 µM). The MIC (MRSA, strain MRSA 77) was 0.03 µg/mL (≈ 0.0579 µM), the MIC (MRSA, strain MRSA 78) was 0.03 µg/mL (≈ 0.0579 µM) and the MIC (MRSA, strain MRSA 79) was under 0.01 µg/mL. For the same compound, the MIC (MRSA, strain MRSA 80) was 0.02 µg/mL (≈ 0.0386 µM), the MIC (MRSA, strain MRSA 81) was 0.03 µg/mL (≈ 0.0579 µM) and the MIC (MRSA, strain MRSA 82) was 0.03 µg/mL (≈ 0.0579 µM). It also gave an MIC (MRSA, strain MRSA 83) of 0.03 µg/mL (≈ 0.0579 µM), an MIC (MRSA, strain MRSA 84) of 0.03 µg/mL (≈ 0.0579 µM) and an MIC (MRSA, strain MRSA 85) of 0.03 µg/mL (≈ 0.0579 µM). For the same compound, the MIC (MRSA, strain MRSA 86) was 0.03 µg/mL (≈ 0.0579 µM), the MIC (MRSA, strain MRSA 87) was 0.02 µg/mL (≈ 0.0386 µM) and the MIC (MRSA, strain MRSA 88) was 0.03 µg/mL (≈ 0.0579 µM). It also gave an MIC (MRSA, strain MRSA 89) of 0.02 µg/mL (≈ 0.0386 µM), an MIC (MRSA, strain MRSA 90) of 0.06 µg/mL (≈ 0.116 µM) and an MIC (MRSA, strain MRSA 91) of 0.06 µg/mL (≈ 0.116 µM). The MIC (MRSA, strain MRSA 92) was 0.06 µg/mL (≈ 0.116 µM), the MIC (MRSA, strain MRSA 93) was 0.02 µg/mL (≈ 0.0386 µM) and the MIC (MRSA, strain MRSA 94) was 0.03 µg/mL (≈ 0.0579 µM). For the same compound, the MIC (MRSA, strain MRSA 95) was 0.03 µg/mL (≈ 0.0579 µM), the MIC (MRSA, strain MRSA 96) was 0.03 µg/mL (≈ 0.0579 µM) and the MIC (MRSA, strain MRSA 97) was 0.03 µg/mL (≈ 0.0579 µM). It also gave an MIC (MRSA, strain MRSA 98) of 0.03 µg/mL (≈ 0.0579 µM), an MIC (MRSA, strain MRSA 99) of 0.03 µg/mL (≈ 0.0579 µM) and an MIC (MRSA, strain MRSA 100) of 1 µg/mL (≈ 1.93 µM). The MIC (MRSA, strain MRSA 101) was 0.03 µg/mL (≈ 0.0579 µM).
